Assay results from US20260132151A1, “NOVEL N,N-DIMETHYLTRYPTAMINE (DMT) DERIVATIVES AND USES THEREOF” (priority 2022, published 2026).
Entries after “also recorded” stand apart in the source; their conditions may differ. Where two headings read alike, the source gives them in different places.

How the values were obtained:
SERT [1] = molecular target: T1, SERT (Homo sapiens, UniProt P31645); experiment: Release (efflux) assay in HEK293-SERT cells loaded with [3H]5-HT; assay type: cell-based; parameters: expressed in transfected cells; details: Examples dissolved in HCl, DMT in DMSO, compared with pCA (full releaser)
T1 sequence (P31645 whole entry): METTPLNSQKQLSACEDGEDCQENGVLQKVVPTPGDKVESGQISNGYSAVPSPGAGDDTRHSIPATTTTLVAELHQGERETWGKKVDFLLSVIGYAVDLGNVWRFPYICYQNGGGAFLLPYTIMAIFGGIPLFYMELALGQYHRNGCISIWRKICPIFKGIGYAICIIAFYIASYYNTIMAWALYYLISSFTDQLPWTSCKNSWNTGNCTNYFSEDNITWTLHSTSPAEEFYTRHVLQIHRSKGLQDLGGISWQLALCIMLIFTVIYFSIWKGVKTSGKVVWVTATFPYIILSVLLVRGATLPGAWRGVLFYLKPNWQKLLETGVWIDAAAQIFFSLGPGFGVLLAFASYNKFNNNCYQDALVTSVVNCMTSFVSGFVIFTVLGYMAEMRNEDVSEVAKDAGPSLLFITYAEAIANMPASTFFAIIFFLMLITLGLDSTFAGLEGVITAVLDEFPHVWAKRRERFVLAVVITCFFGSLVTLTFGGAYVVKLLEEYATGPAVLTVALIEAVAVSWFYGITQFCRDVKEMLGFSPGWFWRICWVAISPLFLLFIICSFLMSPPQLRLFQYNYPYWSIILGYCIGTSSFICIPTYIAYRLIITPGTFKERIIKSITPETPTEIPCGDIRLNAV
Protocol: (§1) Human embryonic kidney (HEK) 293 cells stably expressing human SERT were maintained in humidified atmosphere (37° C., 5% CO2) in Dulbecco's Modified Eagle Medium (DMEM), supplemented with 10% heat-inactivated fetal calf serum (FCS), streptomycin (100 μg×100 mL^−1) and penicillin (100 U×100 mL^−1). Geneticin (50 μg×mL^−1) was used as selection antibiotic.
The day prior to the assay, stably expressing HEK293-SERT cells were seeded in a perfusion chamber of an IBIDI microfluidic chip (μ-Slide VI 0.5 Glass Bottom, ibidi GmbH). Chambers were previously coated with poly-D-lysine for 20 min at 37° C. and then cells were seeded at a density of approximately 1-10^6 cells×mL^−1.
For the release experiment, cells were loaded with radioactive substrate […] [^3H]5-HT for 20 min at 37° C. and then perfused with different solutions at constant flow rate (0.6 μL min^−1). […] The cells were flushed using sodium dodecyl sulfate (SDS) to retrieve the residual radioactivity (6 min). […]
Radioactivity was quantified with a beta-scintillation counter (PerkinElmer, Waltham, MA, USA). The released amount of tritiated substrate for each fraction was expressed as the amount of released tritium compared to the amount remaining in the cell at the end of the previous fraction. […]

SERT [2] = molecular target: T1, SERT; parameters: host or cells: human platelets (endogenous SERT); details: read-out: uptake inhibition by DMT; human platelets expressing SERT; literature value; cited from earlier work
SERT [3] = molecular target: T1, SERT; experiment: Uptake inhibition assay ([3H]5-HT) in HEK293-SERT cells; assay type: cell-based; parameters: expressed in transfected cells; details: for IC50: HEK293-SERT cells
Protocol: as §1
One day before the experiment, HEK293-SERT cells were seeded onto poly-D-lysine coated 96 well plates at a density of 30,000 cells per well in a final volume of 200 μL. For uptake experiments, the cell culture medium was replaced with 300 μL Krebs-HEPES buffer (KHB; 25 mM HEPES, 120 mM NaCl, 5 mM KCl, 1.2 mM CaCl2, 1.2 mM MgSO4, and 5 mM D-glucose, pH 7.3). Then, the buffer was replaced with various concentrations of test compounds for 5 minutes; subsequent to that, 0.1 μM [^3H]5-HT in KHB was added to yield a total volume of 50 μL in the well. For determination of non-specific uptake, paroxetine was used (3 μM).
Uptake was terminated after 60 s by washing the cells with 200 μL ice-cold KHB. Subsequently, the cells were lysed with 200 μL Ultima Gold™ XR liquid scintillation cocktail, and the amount of tritium in the cells was measured with a Wallac 1450 MicroBeta® TriLux liquid scintillation counter. Monoamine uptake data were fitted by nonlinear regression, Vmax and Km values were calculated from Michaelis Menten's least-squares fit with GraphPad Prism (Prism 9.0.2, GraphPad Software, San Diego, CA, USA).
We tested Example 1, Example 4, Example 13 in both uptake inhibition and release assays, and Example 15 in uptake inhibition assays. Drugs were tested either as the undecomposed prodrug or after treatment with 0.5% HCl at 37° C. for 24 hours in order to simulate digestion of the prodrug by gastric acid inside the body after peroral administration. DMT was tested dissolved only in DMSO.

[4] = assay type: physicochemical; details: for stability of the prodrug (in words): 1% HCl, pH 7.4 and pH 8.0 compared; for release of DMT / conversion to DMT (in words): all tested pHs: 1% HCl, pH 7.4, pH 8.0; for degradation of the prodrug: essentially instantaneous, with liberation of DMT
Protocol: Four compounds (i.e., methyl carbamate [compound 8, Example 8], boc carbamate [compound 11, […]], pinacol boronic ester [compound 1, Example 1] and TFA-amide [compound 3, Example 3]) were tested for their stability in 1% hydrochloric acid (HCl) as well as in phosphate buffers (0.1 M) at pH 7.4 and pH 8.0, respectively. These conditions were selected to assess the chemical stability of these compounds at a pH corresponding to different physiological conditions. Dilute hydrochloric acid (pH 1) was used to mimic the low pH of gastric acid within the stomach, while potassium phosphate buffers of pH 7.4 and pH 8.0 were used to mimic conditions in human blood and small intestine, respectively.
4 mg of each test compound was diluted in 4 mL of either a 1% HCl solution or the respective phosphate buffer (0.1 M), resulting in a solution of 1 mg/mL each. Regarding the acidic testing with hydrochloric acid, 2 mL of aqueous test compound solutions were then added to 2 mL of 2% (v/v) in distilled water, yielding a final HCl concentration of […] (pH 0.5). Test solutions were incubated at 37° C. with constant stirring for approximately 21 hours. The concentrations of the parent compound were analyzed at different timepoints using LC/MS. The concentrations of the parent prodrug and released drug were expressed relative to the starting concentration of the parent prodrug.

[5] = after treatment with 0.5% HCl at 37° C. for 24 hours, read-out: Uptake inhibition, IC50 values, SERT
[6] = undecomposed compound dissolved in DMSO, no HCl pre-treatment, read-out: Uptake inhibition, IC50 values, SERT

Row | SMILES | stability of the prodrug (in words) [4] | release of DMT / conversion to DMT (in words) ([4]; 37° C.) | IC50 (SERT [3]; [5]) | IC50 (SERT [3]; [6]) | further results
1 | CN(C)CCc1c[nH]c2ccccc12 [DMT, N,N-Dimethyltryptamine] |  |  |  |  | transporter-mediated efflux (release) via SERT (SERT [1]): almost full efficacious release; IC50 (SERT [2]): ~10 µM; IC50 (SERT [3]; Uptake inhibition, IC50 values, SERT, undecomposed compound dissolved in DMSO, no HCl pre-treatment): 12.3 µM
2 | CN(C)CCc1c[nH]c2cccc(B3OC(C)(C)C(C)(C)O3)c12 [Example 1, N,N-dimethyl-2-(4-(4,4,5,5-tetramethyl-1,3,2-dioxaborolan-2-yl)-1H-indol-3-yl)ethan-1-amine] | maximum stability under acidic conditions | releasing DMT rapidly within minutes | 13.6 µM | 26.7 µM | 
3 | CN(C)CCc1cn(C(=O)C(F)(F)F)c2ccccc12 [Example 3, 1-(3-(2-(dimethylamino)ethyl)-1H-indol-1-yl)-2,2,2-trifluoroethan-1-one] | maximum stability under acidic conditions | releasing DMT rapidly within minutes |  |  | degradation of the prodrug ([4]; phosphate buffer (0.1 M) pH 7.4, 37° C.): 100%; degradation of the prodrug ([4]; phosphate buffer (0.1 M) pH 8.0, 37° C.): 100%
4 | CN(C)CCc1cn(C(=O)C(C)(C)C)c2ccccc12 [Example 4, 1-(3-(2-(dimethylamino)ethyl)-1H-indol-1-yl)-2,2-dimethylpropan-1-one] |  |  | 8.3 µM | ~2.1 µM | transporter-mediated efflux (release) via SERT (SERT [1]): induces even less efflux; also recorded: yields a lower efflux compared to both DMT and Example 1
5 | COC(=O)n1cc(CCN(C)C)c2ccccc21 [Example 8, methyl 3-(2-(dimethylamino)ethyl)-1H-indole-1-carboxylate] |  |  |  |  | release of DMT at pH 7.4 and pH 8.0 ([4]; phosphate buffers (0.1 M) pH 7.4 and pH 8.0, 37° C.): continuous release of DMT
6 | CN(C)CCc1cn(C(=O)OC(C)(C)C)c2ccccc12 [Example 11, tert-butyl 3-(2-(dimethylamino)ethyl)-1H-indole-1-carboxylate] | significantly more stable under all tested conditions | Conversion to DMT proceeded efficiently throughout the entire experiment at all pHs |  |  | liberation of DMT / conversion under acidic conditions ([4]; 1% HCl solution (pH 1.0), 37° C., approximately 21 hours): remarkably fast release time of two hours
7 | CN(C)CCc1cn(S(=O)(=O)C2CC2)c2ccccc12 [Example 13, 2-(1-(cyclopropylsulfonyl)-1H-indol-3-yl)-N,N-dimethylethan-1-amine] |  |  | 22.2 µM | 93.8 µM | interaction with the transporter without pre-treatment (in words) (SERT [3]; uptake inhibition, no HCl pre-treatment (DMSO)): interaction with the transporter was scarce
